Laboratory results as given in patent publication US7745493B2, “Methods of treating tardive dyskinesia and other movement disorders” (priority 1998, dated 2010).

Assays:
[1] = system: person two with long-standing TD; experiment: Case Report 1: clinical observation of TD with blepharospasm; format: in vivo, human; conditions: Case 1; for effect on involuntary movements of TD: clinical observation, acamprosate 333 mg four times a day; for cognitive function (energy, attention, concentration): subjective and objective
Procedure: Palliative treatment with alprazolam (an anxiolytic and GABA agonist via modulation; dosage 0.25 mg four times a day) and trihexyphenidyl (an anticholinergic antiparkinson drug that inhibits dopamine re-uptake at synapses; dosage 2 mg twice a day) was prescribed by another physician.
Initially, their other medications were maintained unchanged.
Nimodipine was discontinued, and the patient was begun on memantine at a dosage of 10 mg twice a day.
For the following 10 days they added 250 mg three times a day of chelated magnesium.

[2] = system: person two with long-standing TD; experiment: Choice Reaction Time (Case 1); format: in vivo, human; conditions: lower score better
From the text: (§1) The tests showing such results included Simple Reaction Time, the Trail Making Test (both parts) and the Paced Auditory Serial Addition Test (PASAT). Choice reaction time, a test requiring both basic attention and concentration on a specific task that must be kept in mind, was slightly better on acamprosate, consistent with the hypothesis that general cognitive function, as opposed to simple attention, improves with acamprosate treatment.
(§2) The following tables report on the results of the neuropsychological tests (Drug I is memantine and Drug II is acamprosate): […]

[3] = system: person two with Parkinson's disease and peak-dose dyskinesia; experiment: Case Report 3: peak-dose dyskinesia of treated Parkinson's disease; format: in vivo, human; conditions: Case 3; for effect on peak-dose dyskinesia: added to antiparkinson regime, memantine 10 mg three times a day, acamprosate 666 mg three times, then 333 mg four times a day, baclofen 30 and 60 mg daily, magnesium 300 mg three times a day
Procedure: The patient's Parkinson's disease was treated using levodopa/carbidopa and bromocriptine.
Prior to beginning treatment with acamprosate, the patient was on an antiparkinson treatment regime that consisted of 1 mg of pergolide three times a day, 5 mg of selegiline twice a day, and a combination of levodopa/carbidopa consisting of 550-600 mg of levodopa and 125-150 mg of carbidopa administered in divided doses.
The patient began acamprosate as an addition to the antiparkinson regime described above. Initially, the patient received 666 mg of acamprosate administered three times a day. Two weeks later the regime was adjusted such that the patient received 333 mg of acamprosate four times a day, taking one 333 mg pill with each daytime dose of 100 mg levodopa and 25 mg carbidopa. The patient's bedtime does of controlled-release levodopa-carbidopa (200 mg of levodopa and 50 mg of carbidopa) was continued, but were given without acamprosate. […] To confirm that the patient's improvement was due to the administration of acamprosate, the patient was taken off the acamprosate. […] During the period off acamprosate, an attempt was made to replace acamprosate with baclofen (a GABA-receptor agonist) at a total daily dose of 30 mg, and then with baclofen at a total daily dose of 60 mg.
Several months later, magnesium (300 mg elemental magnesium, as a mixed chelate), was added to the regimen. It was taken three times a day, together with a one of the patient's regular doses of levodopa/carbidopa. […] To establish whether the improvement was due to magnesium, the magnesium was stopped after several weeks.

[4] = system: person two with long-standing TD; experiment: Simple Reaction Time (neuropsychological test, Case 1); format: in vivo, human; conditions: lower score better
Procedure: On acamprosate, the patient was able to sustain concentration for prolonged periods. […] The patient's cognitive improvement was also assessed using formal neuropsychological measures. The patient was tested while on the drug, then taken off of the drug and tested two days later. On the drug, the patient was able to recall 13 of the 15 items after a short delay as well as 13 of the 15 items after a long delay, as measured by the Rey Auditory Verbal Learning Test. This was in comparison to the patient's ability while off the drug to recall only 7 of the 15 items after a short delay as well as 8 of the items after a long delay in tests performed. In addition, the patient was able to recognize all 15 of the items while on acamprosate but while off the drug (and while having been off of memantine for over 2 months) the patient could only recognize 10 of the items. The order of testing would give the advantage of familiarity to the off-drug condition. Nonetheless, the difference in favor of the on-drug condition was substantial.
as §1, §2

[5] = system: person with extremely severe tardive dyskinesia and dystonia; experiment: Case Report 4: clinical course and physician examination; format: in vivo, human; conditions: Case 4
[6] = system: person two with long-standing TD; experiment: Trail Making Test, Trails A (Case 1); format: in vivo, human; conditions: lower score better
From the text: as §1, §2

[7] = system: person two with long-standing TD; experiment: Motor Functions: Grooved Functions (Case 1); format: in vivo, human; conditions: ON drug, lower score better; for Grooved Functions sec. DH: DH = right
From the text: as §2

[8] = system: person two with chronic schizophrenia and severe tardive dyskinesia; experiment: Case Report 6: clinical observation of severe TD with blepharospasm in chronic schizophrenia; format: in vivo; conditions: Case 6
From the text: A corresponding physician the United Kingdom recently reported to me on the treatment of a person with chronic schizophrenia and severe tardive dyskinesia. As in Case 1, the patient's involuntary movements included severe blepharospasm. In addition, they had involuntary rhythmic peri-oral movements, and chorea-like movements of both hands, like the patient in Case 2. They had no cognitive complaints, nor were cognitive abnormalities noted on routine psychiatric examination.
The patient had developed symptoms of paranoid schizophrenia in 1991. The symptoms of psychosis included auditory hallucinations, bizarre delusions, and persecutory fears. […] They were subsequently hospitalized and stabilized on fluphenthixol decanoate, a depot neuroleptic given by intramuscular injections. Symptoms of TD developed in November, 1994, after 28 months of neuroleptic therapy. […] Beginning in October 1997 the patient was treated for their schizophrenia with 2 mg of risperidone alone. On this modest dose of an atypical neuroleptic, they had severe symptoms of TD for which they eagerly sought treatment.
Memantine was started on November 28, 1997 at a dose of 5 mg per day, increased after 7 days to 5 mg twice a day, and after another 7 days to 5 mg three times a day. […] Further dosage increases were attempted to completely abolish the involuntary movements. The maximum dose attainable without side effects was 10 mg twice a day; above that level the patient had complaints of dizziness. That dose of memantine was maintained through May of […].
In May 1998 the patient was started on acamprosate, in pursuit of complete elimination of their involuntary movements. Initially, acamprosate 333 mg three times a day was added to memantine 10 mg twice a day.

[9] = system: person two with long-standing TD; experiment: Paced Auditory Serial Addition Test (PASAT) (Case 1); format: in vivo, human; conditions: lower score better
From the text: as §1, §2

For `CC(=O)NCCCS(=O)(=O)O` [acamprosate, calcium N-acetylhomotaurinate], the “involuntary movements two months after reinstitution” value [1] was “absent except for very mild movements during times of stress”, the “time to recovery of energy, stamina, concentration and memory after re-instituting treatment” value [1] was “Within two days” and the “time able to read a book” value ([1]; 333 mg four times a day) was “over an hour at a time”. The “effect on involuntary movements of TD” value ([1]; memantine 10 mg twice a day) was “became imperceptible”, the fatigue ([1]; on the acamprosate regime) was “significantly decreased” and the “cognitive function (energy, attention, concentration)” value [1] was “improved significantly”. For the same compound, the “Choice Reaction Time 500 Green” value ([2]; ON drug) was 382 ms, the “Choice Reaction Time 500 Red” value ([2]; ON drug) was 426 ms and the “Choice Reaction Time 1500 Green” value ([2]; ON drug) was 408 ms. The “Choice Reaction Time 1500 Red” value ([2]; ON drug) was 379 ms, the “effect on levodopa/carbidopa treatment of hypokinesia and rigidity” value [3] was “no decrease in the efficacy” and the “periods without dyskinesia following each dose” value [3] was “up to two hours”. For the same compound, the “time to return of dyskinetic movements after stopping” value [3] was “Within one day”, the “effect on peak-dose dyskinesia” value [3] was “reduced from moderate to mild intensity” and the “Simple Reaction Time 500 Green” value ([4]; ON drug) was 286 ms. For the same compound, the “Simple Reaction Time 500 Red” value ([4]; ON drug) was 272 ms, the “Simple Reaction Time 1500 Green” value ([4]; ON drug) was 261 ms and the “Simple Reaction Time 1500 Red” value ([4]; ON drug) was 264 ms. For the same compound, the “time after resuming drug until previous level of benefit regained” value [5] was 72 h, the “time off drug until movement disorder returned to baseline” value [5] was 24 h and the “Trails A Errors” value ([6]; ON drug) was 0. The “Trails A Seconds” value ([6]; ON drug) was 20″, the “Grooved Functions sec. DH” value [7] was “DH = 61″” and the “Grooved Functions sec. NDH” value [7] was “NDH = 70″”. For the same compound, the peri-oral movements ([8]; 333 mg three times a day added to memantine 10 mg twice a day) was “peri-oral movements were eliminated”, the “involuntary movements on acamprosate alone” value ([8]; after memantine discontinued) was “continued free of involuntary movements” and the “PASAT 1.2 sec ISI errors” value ([9]; ON drug) was 13/49. For the same compound, the “PASAT 1.6 sec ISI errors” value ([9]; ON drug) was 11/49, the “PASAT 2.0 sec ISI errors” value ([9]; ON drug) was 1/49 and the “PASAT 2.4 sec ISI errors” value ([9]; ON drug) was 4/49.
In the case of `CC12CC3CC(C)(C1)CC(N)(C3)C2` [memantine], the “side effects at reduced dose” value ([1]; 5 mg three times a day) is reported as “without perceptible side effects”, the “time to reduction of involuntary movements” value ([1]; 10 mg twice a day) is reported as ≤ 24 h and the “effect on involuntary movements of TD” value ([1]; memantine 10 mg twice a day) is reported as “substantially greater degree than had been observed with nimodipine”. The adverse effects ([1]; nimodipine 30 mg four times a day, memantine 10 mg twice a day) was “a sense of mild intoxication”, the “cognitive function (energy, attention, concentration)” value [1] was “improved energy, attention, and concentration” and the “Choice Reaction Time 500 Green” value [2] was 362 ms. For the same compound, the “Choice Reaction Time 500 Red” value [2] was 421 ms, the “Choice Reaction Time 1500 Green” value [2] was 365 ms and the “Choice Reaction Time 1500 Red” value [2] was 422 ms. For the same compound, the “effect on peak-dose dyskinesia” value [3] was “reduced their dyskinetic movements from severe to mild-to-moderate”, the “Simple Reaction Time 500 Green” value [4] was 284 ms and the “Simple Reaction Time 500 Red” value [4] was 266 ms. The “Simple Reaction Time 1500 Green” value [4] was 212 ms, the “Simple Reaction Time 1500 Red” value [4] was 224 ms and the “effect on movement disorder” value ([5]; memantine 10 mg three times a day added to acamprosate and magnesium sulfate) was “aggravated their movement disorder”. For the same compound, the “Trails A Errors” value [6] was 0, the “Trails A Seconds” value [6] was 28″ and the “Grooved Functions sec. DH” value [7] was “DH = 71″”. For the same compound, the “Grooved Functions sec. NDH” value [7] was “NDH = 70″”, the “maximum dose attainable without side effects” value [8] was 10 mg twice a day and the involuntary movements ([8]; 5 mg three times a day) was “virtually no involuntary movements noted at the peak of a given dose”. For the same compound, the “blepharospasm after first two weeks” value ([8]; 5 mg twice a day) was “marked improvement in blepharospasm”, the “involuntary movements after 6 months of treatment” value ([8]; 10 mg twice a day) was “no blepharospasm or limb chorea, and only mild peri-oral movements” and the “complaints above maximum tolerated dose” value ([8]; above 10 mg twice a day) was “dizziness”. For the same compound, the “PASAT 1.2 sec ISI errors” value [9] was 28/49, the “PASAT 1.6 sec ISI errors” value [9] was 21/49 and the “PASAT 2.0 sec ISI errors” value [9] was 17/49. For the same compound, the “PASAT 2.4 sec ISI errors” value [9] was 13/49.
